Test results reported in ChEMBL document CHEMBL1147333, “Brominated indole alkaloids from the marine tunicate Pseudodistoma arborescens” (J Nat Prod, 1993).
Converted amounts (≈) assume the structure as drawn.

Tested on: KB
Experiment: Cytotoxicity against human KB cells
Type: functional, cell-based

With `CN1CCc2c3n(c4cc(Br)ccc24)[C@H](O)CCC[C@@H]31` [ARBORESCIDINE D] the IC50 was 3 µg/mL (≈ 8.95 µM).
